From ChEMBL document CHEMBL3044894, “QSAR studies on a number of pyrrolidin-2-one antiarrhythmic arylpiperazinyls” (2012) come the findings set out here.

This test relates to Rattus norvegicus. The test can be described thus: Antiarrhythmic activity in anaesthetized rat assessed as inhibition of adrenaline-induced arrhythmia. In kind it is functional, Heart.

With `CCOc1ccccc1N1CCN(CC(O)CN2CCC(c3ccccc3)(c3ccccc3)C2=O)CC1` (stereo not drawn), the pED50 is reported as 2.66. For `COc1ccccc1N1CCN(CC(O)CN2CCC(c3ccccc3)(c3ccccc3)C2=O)CC1` (stereo not drawn) the value was 2.37; for `O=C1N(CC(O)CN2CCN(c3ccccc3C(F)(F)F)CC2)CCC1(c1ccccc1)c1ccccc1` (stereo not drawn), 2.13; for `Cc1ccccc1N1CCN(CC(O)CN2CCC(c3ccccc3)(c3ccccc3)C2=O)CC1` (stereo not drawn), 2.53. Take `O=C1N(CC(O)CN2CCN(c3ccccc3)CC2)CCC1(c1ccccc1)c1ccccc1` (stereo not drawn): the pED50 was 2.38. Take `COc1ccc(Cl)cc1N1CCN(CC(O)CN2CCCC2=O)CC1` (stereo not drawn): the pED50 worked out at 1.48. For `CCNC(=O)OC(CN1CCN(c2ccccc2OC)CC1)CN1CCCC1=O` (stereo not drawn) the value was 1.92; for `COc1ccccc1N1CCN(CC(CN2CCCC2=O)OC(=O)NC(C)C)CC1` (stereo not drawn), 2.19; for `CCCNC(=O)OC(CN1CCN(c2ccccc2OC)CC1)CN1CCCC1=O` (stereo not drawn), 1.52. For `CCCC(=O)OC(CN1CCN(c2ccccc2OC(C)C)CC1)CN1CCCC1=O` (stereo not drawn), the pED50 was 1.77. For `CC(C)NC(=O)OC(CN1CCN(c2ccccc2Cl)CC1)CN1CCCC1=O` (stereo not drawn) the value was 2; for `CCNC(=O)OC(CN1CCN(c2ccccc2)CC1)CN1CCCC1=O` (stereo not drawn), 1.66; for `CC(C)C(=O)OC(CN1CCN(c2ccccc2)CC1)CN1CCCC1=O` (stereo not drawn), 1.88. The value for `O=C(NCc1ccccc1)OC(CN1CCN(c2ccccc2)CC1)CN1CCCC1=O` (stereo not drawn) was 1.47; that for `CCCNC(=O)OC(CN1CCN(c2ccccc2)CC1)CN1CCCC1=O` (stereo not drawn) was 1.52. The value for `O=C1CCCN1CCCN1CCN(c2ccccc2O)CC1` was 1.36; that for `O=C1CCCN1CCCN1CCN(c2ccccc2)CC1` was 2.01. As to `COc1ccccc1N1CCN(CCCN2CCCC2=O)CC1`, the pED50 is given as 1.79. Take `O=C1CCCN1CCCN1CCN(c2ccccc2Cl)CC1`: the pED50 was 1.8. Take `O=C1CCCN1CCCN1CCN(c2ccccc2F)CC1`: the pED50 is 1.54. As to `CCOc1ccccc1N1CCN(CCCN2CCCC2=O)CC1`, the pED50 is listed as 2.52.

`O=C1CCCN1CCCN1CCN(c2cccc(C(F)(F)F)c2)CC1`: the pED50 is given as 1.45.

Regarding `COc1ccccc1N1CCN(CC(O)CN2CCCC2=O)CC1` (stereo not drawn), the pED50 was found to be 1.43. As for `O=C1CCCN1CC(O)CN1CCN(c2ccc(Cl)cc2)CC1` (stereo not drawn), the pED50 is given as 1.4. As for `O=C1CCCN1CC(O)CN1CCN(c2ccccc2F)CC1` (stereo not drawn), the pED50 amounted to 1.79. `COc1cccc(N2CCN(CC(O)CN3CCCC3=O)CC2)c1` (stereo not drawn): the pED50 came out at 1.64.

Consider `CCOc1ccccc1N1CCN(CC(O)CN2CCCC2=O)CC1` (stereo not drawn), for which the pED50 was 1.97. Regarding `Cc1ccccc1N1CCN(CC(O)CN2CCCC2=O)CC1` (stereo not drawn), the pED50 came to 1.55.

Take `O=C1CCCN1CC(O)CN1CCN(c2ccccc2O)CC1` (stereo not drawn): the pED50 is recorded as 2.23.

For the molecule `CC(C)Oc1ccccc1N1CCN(CC(O)CN2CCCC2=O)CC1` (stereo not drawn), the pED50 came out at 1.77. As for `O=C1CCCN1CC(O)CN1CCN(c2ccccc2C(F)(F)F)CC1` (stereo not drawn), the pED50 was 1.31. As to `O=C1CCCN1CC(O)CN1CCN(c2ccc(F)cc2F)CC1` (stereo not drawn), the pED50 came out at 1.54.

As to `O=C1CCCN1CC(O)CN1CCN(c2ccccc2)CC1` (stereo not drawn), the pED50 amounted to 1.6.
